# ChEMBL document CHEMBL2010711, “Synthesis and comparative evaluation of 4-oxa- and 4-aza-podophyllotoxins as antiproliferative microtubule destabilizing agents” (Bioorg Med Chem Lett, 2012)
# The source made the active and inactive calls.
# Assays:
# CCRF-CEM = assay: Cytotoxicity against human CCRF-CEM cells after 48 hrs by trypan blue dye exclusion assay; format: functional
# HL-60(TB) = assay: Cytotoxicity against human HL-60(TB) cells after 48 hrs by trypan blue dye exclusion assay; format: functional; conditions: HL-60, 48 h
# MOLT-4 = assay: Cytotoxicity against human MOLT4 cells after 48 hrs by trypan blue dye exclusion assay; format: functional; conditions: MOLT-4, 48 h
# RPMI-8226 = assay: Cytotoxicity against human RPMI8226 cells after 48 hrs by trypan blue dye exclusion assay; format: functional; conditions: RPMI-8226, 48 h
# SR = assay: Cytotoxicity against human SR cells after 48 hrs by trypan blue dye exclusion assay; format: functional
# A549 = assay: Cytotoxicity against human A549 cells after 48 hrs by trypan blue dye exclusion assay; format: functional; conditions: A549, 48 h
# EKVX = assay: Cytotoxicity against human EKVX cells after 48 hrs by trypan blue dye exclusion assay; format: functional
# HOP-92 = assay: Cytotoxicity against human HOP92 cells after 48 hrs by trypan blue dye exclusion assay; format: functional; conditions: HOP-92, 48 h
# NCI-H226 = assay: Cytotoxicity against human NCI-H226 cells after 48 hrs by trypan blue dye exclusion assay; format: functional; conditions: NCI-H226, 48 h
# NCI-H23 = assay: Cytotoxicity against human NCI-H23 cells after 48 hrs by trypan blue dye exclusion assay; format: functional; conditions: NCI-H23, 48 h
# NCI-H322M = assay: Cytotoxicity against human NCI-H322M cells after 48 hrs by trypan blue dye exclusion assay; format: functional
# NCI-H460 = assay: Cytotoxicity against human NCI-H460 cells after 48 hrs by trypan blue dye exclusion assay; format: functional; conditions: NCI-H460, 48 h
# NCI-H522 = assay: Cytotoxicity against human NCI-H522 cells after 48 hrs by trypan blue dye exclusion assay; format: functional; conditions: NCI-H522, 48 h
# COLO 205 = assay: Cytotoxicity against human COLO205 cells after 48 hrs by trypan blue dye exclusion assay; format: functional; conditions: COLO 205, 48 h
# HCC 2998 = assay: Cytotoxicity against human HCC2998 cells after 48 hrs by trypan blue dye exclusion assay; format: functional; conditions: HCC 2998, 48 h
# HCT-116 = assay: Cytotoxicity against human HCT116 cells after 48 hrs by trypan blue dye exclusion assay; format: functional; conditions: HCT-116, 48 h
# HCT-15 = assay: Cytotoxicity against human HCT15 cells after 48 hrs by trypan blue dye exclusion assay; format: functional; conditions: HCT-15, 48 h
# HT-29 = assay: Cytotoxicity against human HT-29 cells after 48 hrs by trypan blue dye exclusion assay; format: functional; conditions: HT-29, 48 h
# KM12 = assay: Cytotoxicity against human KM12 cells after 48 hrs by trypan blue dye exclusion assay; format: functional; conditions: KM12, 48 h
# SW-620 = assay: Cytotoxicity against human SW620 cells after 48 hrs by trypan blue dye exclusion assay; format: functional; conditions: SW-620, 48 h
# SF-268 = assay: Cytotoxicity against human SF268 cells after 48 hrs by trypan blue dye exclusion assay; format: functional; conditions: SF-268, 48 h
# SF-295 = assay: Cytotoxicity against human SF295 cells after 48 hrs by trypan blue dye exclusion assay; format: functional; conditions: SF-295, 48 h
# SF-539 = assay: Cytotoxicity against human SF539 cells after 48 hrs by trypan blue dye exclusion assay; format: functional; conditions: SF-539, 48 h
# SNB-19 = assay: Cytotoxicity against human SNB19 cells after 48 hrs by trypan blue dye exclusion assay; format: functional; conditions: SNB-19, 48 h
# SNB-75 = assay: Cytotoxicity against human SNB75 cells after 48 hrs by trypan blue dye exclusion assay; format: functional; conditions: SNB-75, 48 h
# U-251 = assay: Cytotoxicity against human U251 cells after 48 hrs by trypan blue dye exclusion assay; format: functional; conditions: U-251, 48 h
# LOX IMVI = assay: Cytotoxicity against human LOXIMVI cells after 48 hrs by trypan blue dye exclusion assay; format: functional
# Malme-3M = assay: Cytotoxicity against human MALME-3M cells after 48 hrs by trypan blue dye exclusion assay; format: functional
# M14 = assay: Cytotoxicity against human M14 cells after 48 hrs by trypan blue dye exclusion assay; format: functional; conditions: M14, 48 h
# MDA-MB-435 = assay: Cytotoxicity against human MDA-MB-435 cells after 48 hrs by trypan blue dye exclusion assay; format: functional; conditions: MDA-MB-435, 48 h
# SK-MEL-2 = assay: Cytotoxicity against human SK-MEL-2 cells after 48 hrs by trypan blue dye exclusion assay; format: functional; conditions: SK-MEL-2, 48 h
# SK-MEL-28 = assay: Cytotoxicity against human SK-MEL-28 cells after 48 hrs by trypan blue dye exclusion assay; format: functional; conditions: SK-MEL-28, 48 h
# SK-MEL-5 = assay: Cytotoxicity against human SK-MEL-5 cells after 48 hrs by trypan blue dye exclusion assay; format: functional; conditions: SK-MEL-5, 48 h
# UACC-257 = assay: Cytotoxicity against human UACC257 cells after 48 hrs by trypan blue dye exclusion assay; format: functional; conditions: UACC-257, 48 h
# UACC-62 = assay: Cytotoxicity against human UACC62 cells after 48 hrs by trypan blue dye exclusion assay; format: functional; conditions: UACC-62, 48 h
# IGROV-1 = assay: Cytotoxicity against human IGROV1 cells after 48 hrs by trypan blue dye exclusion assay; format: functional; conditions: IGROV-1, 48 h
# OVCAR-3 = assay: Cytotoxicity against human OVCAR3 cells after 48 hrs by trypan blue dye exclusion assay; format: functional; conditions: OVCAR-3, 48 h
# OVCAR-4 = assay: Cytotoxicity against human OVCAR4 cells after 48 hrs by trypan blue dye exclusion assay; format: functional; conditions: OVCAR-4, 48 h
# OVCAR-5 = assay: Cytotoxicity against human OVCAR5 cells after 48 hrs by trypan blue dye exclusion assay; format: functional; conditions: OVCAR-5, 48 h
# OVCAR-8 = assay: Cytotoxicity against human OVCAR8 cells after 48 hrs by trypan blue dye exclusion assay; format: functional; conditions: OVCAR-8, 48 h
# NCI/ADR-RES = assay: Cytotoxicity against human NCI/ADR-RES cells after 48 hrs by trypan blue dye exclusion assay; format: functional
# SK-OV-3 = assay: Cytotoxicity against human SKOV3 cells after 48 hrs by trypan blue dye exclusion assay; format: functional; conditions: SK-OV-3, 48 h
# 786-0 = assay: Cytotoxicity against human 786-0 cells after 48 hrs by trypan blue dye exclusion assay; format: functional; conditions: 786-0, 48 h
# A498 = assay: Cytotoxicity against human A498 cells after 48 hrs by trypan blue dye exclusion assay; format: functional; conditions: A498, 48 h
# ACHN = assay: Cytotoxicity against human ACHN cells after 48 hrs by trypan blue dye exclusion assay; format: functional
# CAKI-1 = assay: Cytotoxicity against human CAKI-1 cells after 48 hrs by trypan blue dye exclusion assay; format: functional; conditions: CAKI-1, 48 h
# RXF 393 = assay: Cytotoxicity against human RXF393 cells after 48 hrs by trypan blue dye exclusion assay; format: functional; conditions: RXF 393, 48 h
# SN12C = assay: Cytotoxicity against human SN12C cells after 48 hrs by trypan blue dye exclusion assay; format: functional
# TK-10 = assay: Cytotoxicity against human TK10 cells after 48 hrs by trypan blue dye exclusion assay; format: functional; conditions: TK-10, 48 h
# UO-31 = assay: Cytotoxicity against human UO31 cells after 48 hrs by trypan blue dye exclusion assay; format: functional; conditions: UO-31, 48 h
# PC-3 = assay: Cytotoxicity against human PC3 cells after 48 hrs by trypan blue dye exclusion assay; format: functional; conditions: PC-3, 48 h
# DU-145 = assay: Cytotoxicity against human DU145 cells after 48 hrs by trypan blue dye exclusion assay; format: functional; conditions: DU-145, 48 h
# MCF7 = assay: Cytotoxicity against human MCF7 cells after 48 hrs by trypan blue dye exclusion assay; format: functional; conditions: MCF7, 48 h
# MDA-MB-231 = assay: Cytotoxicity against human MDA-MB-231 cells after 48 hrs by trypan blue dye exclusion assay; format: functional; conditions: MDA-MB-231, 48 h
# [1] = Cytotoxicity against human Hs 578T cells after 48 hrs by trypan blue dye exclusion assay; format: functional
# BT-549 = assay: Cytotoxicity against human BT549 cells after 48 hrs by trypan blue dye exclusion assay; format: functional; conditions: BT-549, 48 h
# MDA-MB-468 = assay: Cytotoxicity against human MDA-MB-468 cells after 48 hrs by trypan blue dye exclusion assay; format: functional; conditions: MDA-MB-468, 48 h
# Paracentrotus lividus [2] = assay: Antimitotic activity against Paracentrotus lividus embryo assessed as cleavage alteration at 2 fold less effective threshold concentration after 2.5 to 6 hrs; format: functional, organism-based
# Paracentrotus lividus [3] = assay: Antimitotic activity against Paracentrotus lividus embryo assessed as cleavage arrest at 2 fold less effective threshold concentration after 2.5 to 6 hrs; format: functional, organism-based
# Paracentrotus lividus [4] = assay: Microtubule destabilizing activity in Paracentrotus lividus embryo assessed as embryo spinning at 2 fold less effective threshold concentration after 15 mins to 20 hrs; format: functional, organism-based
# T47D = assay: Cytotoxicity against human T47D cells after 48 hrs by trypan blue dye exclusion assay; format: functional
smiles,measurement,setting,value
COc1cc([C@H]2C3=C(COC3=O)Nc3cc4c(cc32)OCO4)cc2c1OCO2,GI50,CCRF-CEM,120 nM
same,GI50,HL-60(TB),99 nM
same,GI50,MOLT-4,360 nM
same,GI50,RPMI-8226,93.1 nM
same,GI50,SR,60.1 nM
same,GI50,A549,306 nM
same,GI50,EKVX,320 nM
same,GI50,HOP-92,136 nM
same,GI50,NCI-H226,4590 nM
same,GI50,NCI-H23,142 nM
same,GI50,NCI-H322M,142 nM
same,GI50,NCI-H460,690 nM
same,GI50,NCI-H522,144 nM
same,GI50,COLO 205,186 nM
same,GI50,HCC 2998,387 nM
same,GI50,HCT-116,236 nM
same,GI50,HCT-15,256 nM
same,GI50,HT-29,1250 nM
same,GI50,KM12,36.2 nM
same,GI50,SW-620,98.2 nM
same,GI50,SF-268,108 nM
same,GI50,SF-295,29 nM
same,GI50,SF-539,48.3 nM
same,GI50,SNB-19,362 nM
same,GI50,SNB-75,26.7 nM
same,GI50,U-251,108 nM
same,GI50,LOX IMVI,117 nM
same,GI50,Malme-3M,> 100000 nM
same,GI50,M14,228 nM
same,GI50,MDA-MB-435,26.9 nM
same,GI50,SK-MEL-2,207 nM
same,GI50,SK-MEL-28,61 nM
same,GI50,SK-MEL-5,101 nM
same,GI50,UACC-257,74.1 nM
same,GI50,UACC-62,48 nM
same,GI50,IGROV-1,185 nM
same,GI50,OVCAR-3,31.9 nM
same,GI50,OVCAR-4,98.4 nM
same,GI50,OVCAR-5,1090 nM
same,GI50,OVCAR-8,232 nM
same,GI50,NCI/ADR-RES,103 nM
same,GI50,SK-OV-3,155 nM
same,GI50,786-0,321 nM
same,GI50,A498,30.9 nM
same,GI50,ACHN,357 nM
same,GI50,CAKI-1,128 nM
same,GI50,RXF 393,30.3 nM
same,GI50,SN12C,350 nM
same,GI50,TK-10,115 nM
same,GI50,UO-31,1380 nM
same,GI50,PC-3,80.3 nM
same,GI50,DU-145,173 nM
same,GI50,MCF7,37.2 nM
same,GI50,MDA-MB-231,308 nM
same,GI50,[1],37.8 nM
same,GI50,BT-549,338 nM
same,GI50,MDA-MB-468,119 nM
same,Activity,Paracentrotus lividus [2],inactive
same,Activity,Paracentrotus lividus [3],inactive
same,Activity,Paracentrotus lividus [4],inactive
COc1ccc2c(c1)C(c1cc(OC)c3c(c1)OCO3)C1=C(COC1=O)N2 (stereo unspecified),GI50,CCRF-CEM,424 nM
same,GI50,HL-60(TB),287 nM
same,GI50,MOLT-4,569 nM
same,GI50,RPMI-8226,494 nM
same,GI50,SR,324 nM
same,GI50,A549,491 nM
same,GI50,EKVX,982 nM
same,GI50,HOP-92,425 nM
same,GI50,NCI-H226,23300 nM
same,GI50,NCI-H23,317 nM
same,GI50,NCI-H322M,283 nM
same,GI50,NCI-H460,19200 nM
same,GI50,NCI-H522,348 nM
same,GI50,COLO 205,268 nM
same,GI50,HCC 2998,568 nM
same,GI50,HCT-116,457 nM
same,GI50,HCT-15,485 nM
same,GI50,HT-29,326 nM
same,GI50,KM12,254 nM
same,GI50,SW-620,377 nM
same,GI50,SF-268,805 nM
same,GI50,SF-295,82.5 nM
same,GI50,SF-539,359 nM
same,GI50,SNB-19,518 nM
same,GI50,SNB-75,48.7 nM
same,GI50,U-251,805 nM
same,GI50,LOX IMVI,702 nM
same,GI50,Malme-3M,> 100000 nM
same,GI50,M14,247 nM
same,GI50,MDA-MB-435,49 nM
same,GI50,SK-MEL-2,429 nM
same,GI50,SK-MEL-28,206 nM
same,GI50,SK-MEL-5,269 nM
same,GI50,UACC-257,> 100000 nM
same,GI50,UACC-62,88.1 nM
same,GI50,IGROV-1,679 nM
same,GI50,OVCAR-3,234 nM
same,GI50,OVCAR-4,762 nM
same,GI50,OVCAR-5,629 nM
same,GI50,OVCAR-8,595 nM
same,GI50,NCI/ADR-RES,289 nM
same,GI50,SK-OV-3,318 nM
same,GI50,786-0,594 nM
same,GI50,A498,138 nM
same,GI50,ACHN,1570 nM
same,GI50,CAKI-1,709 nM
same,GI50,RXF 393,130 nM
same,GI50,SN12C,622 nM
same,GI50,TK-10,> 100000 nM
same,GI50,UO-31,33100 nM
same,GI50,PC-3,358 nM
same,GI50,DU-145,399 nM
same,GI50,MCF7,254 nM
same,GI50,MDA-MB-231,698 nM
same,GI50,[1],199 nM
same,GI50,BT-549,1190 nM
same,GI50,T47D,50500 nM
same,GI50,MDA-MB-468,230 nM
same,Activity,Paracentrotus lividus [2],inactive
same,Activity,Paracentrotus lividus [3],inactive
same,Activity,Paracentrotus lividus [4],inactive
